Results: patent publication US8912120B2, “Herbicidal compositions comprising 4-amino-3-chloro-5-fluoro-6-(4-chloro-2-fluoro-3-methoxyphenyl) pyridine-2-carboxylic acid or a derivative thereof and synthetic auxin herbicides” (Dow AgroSciences, LLC., priority 2012, dated 2014)

Experiments:
[1] = tested on: ECHOR; experiment: Example II: in-water applied herbicidal mixtures, transplanted paddy rice, ECHOR; type: in vivo, Echinochloa oryzoides (early watergrass); settings: Echinochloa oryzoides, 480 h, 20 DAA; 560 gai/ha; read-out: Visual Weed Control (%) Obs
Method: (§1) The prepared mud was dispensed in 365 mL aliquots into 16-ounce (oz.) non-perforated plastic pots with a surface area of 86.59 square centimeters (cm^2) leaving a headspace of 3 centimeters (cm) in each pot Mud was allowed to dry overnight prior to planting or transplanting. Rice seeds were planted in Sun Gro MetroMix® 306 planting mixture, which typically has a pH of 6.0 to 6.8 and an organic matter content of about 30 percent, in plastic plug trays. Seedlings at the second or third leaf stage of growth were transplanted into 840 mL of mud contained in 32-oz. non-perforated plastic pots with a surface area of 86.59 cm^2 4 days prior to herbicide application. […] Nutrients were added as Osmocote® (19:6:12, N:P:K^+ minor nutrients) at 2 g per 16-oz. pot and 4 g per 32-oz. pot.
(§2) Applications were made by injecting with a pipetter appropriate amounts of the application solutions, individually and sequentially, into the aqueous layer of the paddy. Control plants were treated in the same manner with the solvent blank. Applications were made so that all treated plant material received the same concentrations of acetone and crop oil concentrate.

[2] = tested on: CYPIR; experiment: Example II: in-water applied herbicidal mixtures, transplanted paddy rice, CYPIR; type: in vivo, Cyperus iria L. (flatsedge; settings: 21 DAA; 560 gai/ha
[3] = tested on: CYPES; experiment: Example I: postemergence foliar-applied herbicidal mixtures, direct seeded rice, CYPES; type: in vivo, Cyperus esculentus (yellow nutsedge)
Method: (§6) The soil matrix was contained in plastic pots with a volume of 1 quart and a surface area of 83.6 square centimeters (cm^2). […] The plants were grown for 8-22 days in a greenhouse with an approximate 14 h photoperiod which was maintained at about 29° C. during the day and 26° C. during the night. Nutrients (Peters Excel® 15-5-15 5-Ca 2-Mg and iron chelate) were applied in the irrigation solution as needed and water was added on a regular basis. Supplemental lighting was provided with overhead metal halide 1000-Watt lamps as necessary. The plants were employed for testing when they reached the first through fourth true leaf stage.
(§7) Treatments consisted of the acid or esters of 4-amino-3-chloro-5-fluoro-6-(4-chloro-2-fluoro-3-methoxy-phenyl)pyridine-2-carboxylic acid (Compound A), each formulated as an SC (suspension concentrate), and various herbicidal components alone and in combination. Forms of compound A were applied on an acid equivalent basis.
(§8) For treatments comprised of formulated compounds, measured amounts of compounds were placed individually in 25 mL glass vials and diluted in a volume of 1.25% (v/v) Agri-Dex® crop oil concentrated to obtain 12× stock solutions. […] Application solutions were prepared by adding an appropriate amount of each stock solution (e.g., 1 mL) and diluted to the appropriate final concentrations with the addition of 10 mL of an aqueous mixture of 1.25% (v/v) crop oil concentrate so that the final spray solutions contained 1.25+/−0.05% (v/v) crop oil concentrate.
(§9) All stock solutions and applications solutions were visually inspected for compound compatibility prior to application. Spray solutions were applied to the plant material with an overhead Mandel track sprayer equipped with a 8002E nozzles calibrated to deliver 187 L/ha over an application area of 0.503 m^2 at a spray height of 18 to 20 inches (46 to 50 cm) above average plant canopy height. Control plants were sprayed in the same manner with the solvent blank.
(§10) The treated plants and control plants were placed in a greenhouse as described above and watered by sub-irrigation to prevent wash-off of the test compounds. After approximately 3 weeks, the condition of the test plants as compared with that of the untreated plants was determined visually and scored on a scale of 0 to 100 percent where 0 corresponds to no injury or growth inhibition and 100 corresponds to complete kill.
(§11) Colby's equation was used to determine the herbicidal effects expected from the mixtures (Colby, S. R. 1967. Calculation of the synergistic and antagonistic response of herbicide combinations. Weeds 15:20-22).
The following equation was used to calculate the expected activity of mixtures containing two active ingredients, A and B: Expected=A+B−(A×B/100) […]

[4] = tested on: SCPMA; experiment: Example II: in-water applied herbicidal mixtures, transplanted paddy rice, SCPMA; type: in vivo; settings: 20 DAA; 560 gai/ha
Method: as §1, §2

[5] = tested on: VIOTR; experiment: Example IV: postemergence foliar-applied herbicidal mixtures, cereal crops, VIOTR; type: in vivo, Viola tricolor (wild pansy); settings: alone, 140 gai/ha, foliar, 20-22 days
Method: (§3) Seeds of the desired test plant species were planted in Sun Gro MetroMix 306 planting mixture, which typically has a pH of 6.0 to 6.8 and an organic matter content of about 30 percent, in plastic pots with a surface area of 103.2 square centimeters (cm^2). […] The plants were grown for 7-36 days in a greenhouse with an approximate 14 hour photoperiod which was maintained at about 18° C. during the day and 17° C. during the night.
(§4) Spray solutions of the second cereal herbicide and experimental compound mixtures were prepared by adding the stock solutions to the appropriate amount of dilution solution to form 12 mL spray solution with active ingredients in two- and three-way combinations.

[6] = tested on: DIGSA; experiment: Example I: postemergence foliar-applied herbicidal mixtures, direct seeded rice, DIGSA; settings: 560 gai/ha
Method: as §6, §7, §8, §9, §10, §11
(§12) The following equation was used to calculate the expected activity of mixtures containing two active ingredients, A and B: Expected=A+B−(A×B/100)
(§13) A=observed efficacy of active ingredient A at the same concentration as used in the mixture.
(§14) B=observed efficacy of active ingredient B at the same concentration as used in the mixture.

[7] = tested on: AMARE; experiment: Example IV: postemergence foliar-applied herbicidal mixtures, weed control in cereal crops in the greenhouse, AMARE; type: in vivo, Amaranthus retroflexus (redroot pigweed); settings: alone, 140 gai/ha, 20-22 days
Method: as §3, §4

[8] = tested on: ECHCG; experiment: Example I: postemergence foliar-applied herbicidal mixtures, direct seeded rice, ECHCG
Method: as §6, §7, §8, §9, §10, §11, §12, §13, §14

[9] = tested on: CYPIR; experiment: Example I: postemergence foliar-applied herbicidal mixtures, direct seeded rice, CYPIR; type: in vivo, Cyperus iria (rice flatsedge)
Method: as §6, §7, §8, §9, §10, §11, §12, §13, §14

[10] = tested on: ISCRU; experiment: Example I: postemergence foliar-applied herbicidal mixtures, direct seeded rice, ISCRU; type: in vivo, Ischaemum rugosum (saramollagrass)
Method: as §6, §7, §8, §9, §10, §11, §12, §13, §14

[11] = tested on: POLCO; experiment: Example IV: postemergence foliar-applied herbicidal mixtures, cereal crops, POLCO; type: in vivo, Polygonum convolvulus (wild buckwheat); settings: alone, 140 gai/ha, foliar, 20-22 days
Method: as §3, §4

[12] = tested on: ELEIN; experiment: Example III: postemergence foliar-applied herbicidal mixtures, weeds common to row crops such as corn and soybeans (greenhouse), ELEIN; type: in vivo, Eleusine indica (goosegrass); settings: 17 DAA
Method: (§5) The plants were grown for 7-31 days (d) in a greenhouse with an approximate 15 hour (h) photoperiod which was maintained at about 23-29° C. during the day and 22-28° C. during the night.

[13] = tested on: SORHA; experiment: Example III: postemergence foliar-applied herbicidal mixtures, row crop weeds, SORHA; type: in vivo, Sorghum halepense (johnsongrass); settings: 13 DAA; 7.5 gae/ha
Method: as §5

SMILES: O=C(O)c1c(Cl)ccc2cc(Cl)cnc12 [Quinclorac, 3,7-dichloro-8-quinolinecarboxylic acid]
- pest or weed control at 560 g/ha [1]: 20%
- Visual Weed Control (%) Obs [2]: 0%
- Visual Weed Control (%) - 21 DAA CYPES Obs ([3]; 70 gai/ha): 0%
- Visual Weed Control (%) - 21 DAA CYPES Obs ([3]; 140 gai/ha): 0%
- Visual Weed Control (%) - 21 DAA CYPES Obs ([3]; 280 gai/ha): 0%
- Visual Weed Control (%) Obs [4]: 0%
- VIOTR Ob (observed value) [5]: 0%
- Visual Weed Control (%) - 20 DAA DIGSA Obs [6]: 8%
- Visual Weed Control (%) - 21 DAA DIGSA Obs [6]: 8%
- AMARE Ob (observed value) [7]: 27%
- Visual Weed Control (%) - 21 DAA ECHCG Obs ([8]; 70 gai/ha): 15%
- Visual Weed Control (%) - 21 DAA ECHCG Obs ([8]; 140 gai/ha): 30%
- Visual Weed Control (%) - 21 DAA ECHCG Obs ([8]; 280 gai/ha): 30%
- Visual Weed Control (%) - 21 DAA CYPIR Obs ([9]; 70 gai/ha): 0%
- Visual Weed Control (%) - 21 DAA CYPIR Obs ([9]; 140 gai/ha): 0%
- Visual Weed Control (%) - 21 DAA CYPIR Obs ([9]; 280 gai/ha): 0%
- Visual Weed Control (%) - 21 DAA ISCRU Obs ([10]; 140 gai/ha): 0%
- Visual Weed Control (%) - 21 DAA ISCRU Obs ([10]; 280 gai/ha): 0%
- Visual Weed Control (%) - 21 DAA ISCRU Obs ([10]; 560 gai/ha): 0%
- POLCO Ob (observed value) [11]: 3%

SMILES: COc1c(Cl)ccc(-c2cc(N)c(Cl)c(C(=O)[O-])n2)c1F.[K+] [Halauxifen K^+ Salt]
- Visual Weed Control (%) Obs ([12]; 3.75 gae/ha): 30%
- Visual Weed Control (%) Obs ([12]; 7.5 gae/ha): 40%
- Visual Weed Control (%) Obs ([12]; 15 gae/ha): 50%
- Visual Weed Control (%) Obs [13]: 0%
